The text below walks through data of PubChem BioAssay AID1188 (EPA DSSTox, 2008).

Active and inactive are the calls of the source.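 Rule for the calls: active = a concentration killing half the fathead minnows in the acute test was determined; inconclusive = some fish died but not half at top dose; inactive = no fish died even at top dose.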

This data set relates to Fathead minnow (Pimephales promelas) acute toxicity, lethality. The data set can be described thus: DSSTox (EPAFHM) EPA Fathead Minnow Acute Toxicity. From the text: The EPA Fathead Minnow Acute Toxicity database was generated by the U.S. EPA Mid-Continental Ecology Division (MED) for the purpose of developing an expert system to predict acute toxicity from chemical structure based on mode of action considerations. […] A second valuable aspect of this database, from a QSAR modeling perspective, is the inclusion of general mode-of-action (MOA) classifications of acute toxicity response for individual chemicals derived from study results. MOA assignments are biologically based classifications, allowing definition of chemical similarity based upon biological activity instead of organic chemistry functional class as most commonly employed in QSAR study. MOA classifications should strengthen the scientific basis for construction of individual QSARs. However, it is cautioned that the broad MOA categorizations should not be construed to represent a single molecular mechanism; for example, CNS seizure agents and respiratory inhibitors are known to act through a variety of receptors. The EPA Fathead Minnow database and results have been used by EPA MED to build components of the ASTER prediction system, which incorporates MOA-based QSARs for the prediction of aquatic toxicity of environmental and industrial chemicals. Briefly, MOA classifications for individual chemicals, derived from experiments and provided in the EPA Fathead Minnow database, were used to derive substructural rules for assigning a new chemical to an MOA category based solely on chemical structure. Once a new chemical is assigned to an MOA category on this basis, the logP-based QSAR for that MOA category is applied.
The DSSTox EPAFHM database (available from the DSSTox Source URL) includes information pertaining to organic chemical class assignments (ChemClass_FHM), acute toxicity in fathead minnow (LC50_mg), dose-response assessments (LC50_Ratio, ExcessToxicityIndex), behavioral assessments (FishBehaviorTest), joint toxicity MOA evaluations of mixtures (MOA_MixtureTest), and additional MOA evaluation of fish acute toxicity syndrome (FishAcuteToxSyndrome) in rainbow trout. All of these indicators, to the extent available, were considered in the determination of MOA and, additionally, were used to determine a level of confidence in the MOA assignment for each chemical (MOA_Confidence). […] Activity Score is mapping of LOG10 (1/LC50_mmol) activity values spanning activity range [MIN, MAX] onto Integer 1-100 Activity range, where 100 is highest potency and 1 is lowest. If Activity Outcome is "active": Activity Score = 100 * INTEGER[(log10(1/ LC50_mmol) - MIN)/([…])].
Take `C=Cc1cccc(CCl)c1`: the Potency is 2.03 µM.
As for `O=C(/C=C/C=C/c1ccc2c(c1)OCO2)N1CCCCC1`, the Potency is 27.5 µM.
As for `CCCCN`, the Potency was 3660 µM.
The same measure, in the same setting: then `O=S(=O)([O-])c1ccc[n+](Cc2ccccc2)c1`, with 9670 µM; and `C#CC(C)(C)O`, with 39100 µM; and `ClCC(Cl)CCl`, with 391 µM.
As to `OCCOCCOCCO`, the Potency is 459000 µM.
For the molecule `COc1c(O)c(Br)cc(C=O)c1[N+](=O)[O-]`, the Potency was 266 µM.
`CCOP(=O)(OCC)SCCSCC`: the Potency was 61.9 µM.
Still for that read-out and setting: the value for `BrCCCBr` was 10.4 µM; that for `ClCc1ccc(CCl)cc1` was 0.223 µM.
For `O=C1C[C@@H]2OCC=C3CN4CC[C@]56c7ccccc7N1[C@H]5[C@H]2[C@H]3C[C@H]46`, the Potency is 1.11 µM.
Same read-out and setting: the value for `CC=O` was 767 µM.
In the case of `CCc1c(Br)c(Br)c(Br)c(Br)c1Br`, the outcome is “inactive; moa not determined either due to lack of toxicity at saturation or late test res”.
With `C=CC(=O)OCC(C)O` (stereo not given), the Potency is 26 µM.
In the case of `CNC(=O)O/N=C(\C)SC`, the Potency was 13 µM.
The same measure, in the same setting: then `CCCCOC(=O)CCC(=O)OCCCC`, with 19.4 µM; and `ClC(Cl)=C(Cl)C(Cl)=C(Cl)Cl`, with 0.345 µM.
Still for that read-out and setting: the value for `C/C=N/O` was 1290 µM; that for `C1CCOC1` was 30000 µM; that for `O=Cc1ccccc1` was 93 µM.
The same measure, in the same setting: the value for `CC(C)CC=O` was 37.7 µM.
Take `CC(=O)c1ccccc1`: the Potency is 1350 µM.
For the molecule `Cc1ccc(O)c(C)c1`, the Potency is 136 µM.
Regarding `CCc1ccc(N)cc1`, the Potency was 602 µM.
On to `C=CCOC(=O)C(=C)C`, for which the Potency was 7.85 µM.
Take `CC(C)C(C)N` (stereo not given): the Potency is 3260 µM.
As for `C=CCC#N`, the Potency was 2710 µM.
The same measure, in the same setting: the value for `Nc1ccc(F)cc1C(F)(F)F` was 165 µM; that for `c1ccc2occc2c1` was 119 µM; that for `c1ccoc1` was 896 µM.
As for `O=[N+]([O-])c1ccc(O)cc1C(F)(F)F`, the Potency was 44.1 µM.
Still for that read-out and setting: then `CCC(C)=O`, with 44700 µM; and `CC(O)CN` (stereo not given), with 33600 µM.
Same read-out and setting: then `C=C(C)C(=O)OCCOCC`, with 175 µM; and `O=P(c1ccccc1)(c1ccccc1)c1ccccc1`, with 193 µM; and `CCN(CC)C1CCCCC1`, with 138 µM.
Same read-out and setting: the value for `Cc1ccccc1F` was 176 µM; that for `CCC1(CCC(C)C)C(=O)NC(=O)NC1=O` was 377 µM.
For the molecule `COC(=O)c1ccc(Cl)cc1`, the Potency was 64 µM.
As to `COc1ccccc1C(N)=O`, the Potency is 794 µM.
`CCCC=O`: the Potency is 204 µM.
Same read-out and setting: then `COC(=O)c1ccc(Cl)cc1[N+](=O)[O-]`, with 128 µM; and `C=CCO`, with 5.51 µM; and `NCCO`, with 33900 µM.
With `CC(=O)C(C)(C)C`, the Potency was 869 µM.
Consider `N#Cc1cccc(C(F)(F)F)c1`, for which the Potency was 279 µM.
Take `C#CC(C)(O)c1ccccc1` (stereo not given): the Potency was 773 µM.
As to `CN(C)c1ccc(P(=O)(c2ccc(N(C)C)cc2)c2ccc(N(C)C)cc2)cc1`, the outcome is “inactive; moa not determined either due to lack of toxicity at saturation or late test res”.
For the molecule `ON=C1CCCCC1`, the Potency is 1840 µM.
Still for that read-out and setting: then `NCc1ccccc1`, with 952 µM; and `[N-]=[N+]=[N-]`, with 84 µM.
As to `CN(C)N`, the Potency is 131 µM.
In the case of `Clc1cccc(Cl)c1C(Cl)Cl`, the Potency was 4.22 µM.
Same read-out and setting: the value for `CCC(C)C=O` (stereo not given) was 116 µM.
For `O=S(c1ccc(Cl)cc1)c1ccc(Cl)cc1`, the outcome was “inactive; moa not determined either due to lack of toxicity at saturation or late test res”.
Consider `CCCC(C)=O`, for which the Potency is 14400 µM.
`Cc1ccc(SSc2ccc(C)cc2)cc1`: the outcome was “inactive; moa not determined either due to lack of toxicity at saturation or late test res”.
Turning to `ClC=C(Cl)Cl`, the Potency is 336 µM.
The same measure, in the same setting: then `Cc1c[nH]c2ccccc12`, with 67.4 µM.
Consider `CCCCCc1ccccc1`, for which the Potency is 11.5 µM.
For `CCCCCCCCCCO`, the Potency was 15.2 µM.
With `CCCCC=O`, the Potency is 150 µM.
Take `C=C(C)[C@H]1Cc2c(ccc3c2O[C@@H]2COc4cc(OC)c(OC)cc4[C@@H]2C3=O)O1`: the Potency is 0.0132 µM.
The same measure, in the same setting: then `N#Cc1ccccn1`, with 6970 µM; and `O=[N+]([O-])c1cc([N+](=O)[O-])c2ccccc2c1O`, with 14.5 µM.
Turning to `CCCSCCCCSCCC`, the Potency was 14.5 µM.
Turning to `Cl[C@@H]1CCCC[C@H]1Cl`, the Potency was 120 µM.
Take `CCCCC(CC)COC(=O)c1ccccc1C(=O)OCC(CC)CCCC` (stereo not given): the outcome is “inactive; moa not determined either due to lack of toxicity at saturation or late test res”.
Take `CCCCCCC(=O)CCCCCC`: the outcome is “inactive; moa not determined either due to lack of toxicity at saturation or late test res”.
Turning to `CCN(CC)c1ccc(C=O)cc1`, the Potency was 135 µM.
Still for that read-out and setting: the value for `CCOC(C)=O` was 2610 µM; that for `Clc1ccccc1Cl` was 64 µM.
Regarding `Cc1c(Cl)cccc1NC=O`, the Potency is 275 µM.
Same read-out and setting: then `CCNCC`, with 11700 µM; and `CC(C)(C)CN`, with 5450 µM.
Take `CCCCCCCCc1ccc(N)cc1`: the Potency is 0.584 µM.
The same measure, in the same setting: then `C#CC(O)CCCCC` (stereo not given), with 3.27 µM.
Take `O=S(Cc1ccccc1)Cc1ccccc1`: the Potency is 348 µM.
Same read-out and setting: then `C#CCC(C)O` (stereo not given), with 417 µM.
`Cc1cccnc1`: the Potency was 1550 µM.
Still for that read-out and setting: then `CC1=CC(=O)c2ccccc2C1=O`, with 0.639 µM.
The same measure, in the same setting: then `O=Cc1ccccc1F`, with 10.9 µM.
Regarding `CC(C)C(O)C(C)C`, the Potency is 1400 µM.
In the case of `C#CC(O)CCCC` (stereo not given), the Potency was 15.7 µM.
On to `OCCN1CCNCC1`, for which the Potency was 49200 µM.
The same measure, in the same setting: then `c1ccc2c(c1)oc1ccccc12`, with 8.92 µM.
On to `COC(=O)c1ccc(C(=O)OC)c(N)c1`, for which the Potency is 42.7 µM.
On to `CC(C)[C@H](C(=O)OC(C#N)c1cccc(Oc2ccccc2)c1)c1ccc(OC(F)F)cc1` (stereo not given in full), for which the Potency was 0.000421 µM.
Turning to `Oc1cc(Cl)c(Cl)c(Cl)c1Cl`, the Potency is 1.77 µM.
Consider `CCNCCO`, for which the Potency is 16600 µM.
Still for that read-out and setting: the value for `Nc1ccc([N+](=O)[O-])cc1[N+](=O)[O-]` was 80.8 µM; that for `CCOC(=O)CCCCCCCCC(=O)OCC` was 10.5 µM; that for `O=Cc1cccc(Oc2ccc(Cl)c(Cl)c2)c1` was 1.12 µM.
On to `CC1CNCC(C)O1` (stereo not given), for which the Potency was 3360 µM.
With `OCCCl`, the Potency was 667 µM.
The same measure, in the same setting: then `Oc1c(O)c(Cl)c(Cl)c(Cl)c1Cl`, with 5.12 µM.
Same read-out and setting: the value for `CC(=O)Nc1ccccc1O` was 179 µM; that for `CCCCCCCCO` was 104 µM; that for `CNC(=O)Oc1ccc(N(C)C)c(C)c1` was 9.36 µM.
The same measure, in the same setting: the value for `Cc1ccccc1C=O` was 440 µM; that for `COC(=O)c1ccc(C#N)cc1` was 290 µM.
On to `OCC#CCO`, for which the Potency is 623 µM.
As for `CC(=O)c1ccc(Cl)c(Cl)c1Cl`, the Potency was 8.95 µM.
As for `C=Cn1c2ccccc2c2ccccc21`, the Potency is 0.0166 µM.
Still for that read-out and setting: the value for `COc1cccc(C=O)c1O` was 15.8 µM.
Take `CCc1cccc(CC)c1`: the Potency was 30.9 µM.
Same read-out and setting: then `CC(=O)CC(=O)c1ccccc1`, with 6.78 µM; and `CCc1ccccc1`, with 98.9 µM.
On to `Oc1ccc(Cl)cc1O`, for which the Potency is 10.9 µM.
On the same count and under the same terms, the value for `COC(C)(C)C` was 7620 µM; that for `CN(C)Cc1ccccc1` was 280 µM.
`O=Cc1cc(Br)ccc1O`: the Potency was 6.46 µM.
Regarding `CC(=O)OC(C)(C)C`, the Potency was 2820 µM.
On the same count and under the same terms, the value for `CCCCCCCC(C)=O` was 107 µM; that for `CCCCCCCCCc1ccc(O)cc1` was 0.635 µM.
On the same count and under the same terms, then `CCCCCCCCC(=O)O`, with 657 µM; and `OCCOc1ccccc1`, with 2490 µM.
Same read-out and setting: the value for `Cc1ccc(C)o1` was 740 µM; that for `OCCCc1cccnc1` was 1090 µM.
Regarding `CC(C)(C)c1cc(C(C)(C)C)c(O)c(C(C)(C)C)c1`, the Potency is 0.232 µM.
Same read-out and setting: the value for `COc1ccc(C(C)=O)c(O)c1` was 418 µM.
On the same count and under the same terms, the value for `O=[N+]([O-])c1cc([N+](=O)[O-])c(Cl)cc1Cl` was 0.192 µM; that for `CC(C)c1cccc(C(C)C)c1N` was 86.3 µM.
Regarding `Nc1ccc(Br)cc1`, the Potency was 276 µM.
